The values below come from patent US8076323B2, “Anti-inflammatory agents” (Cambridge Enterprise Limited, priority 2005, dated 2011).

For data set [1] the following is noted: oral route or injection; comparable to dexamethasone; cited from earlier work.
Data set [2] has as its system chemokine-induced migration. As to conditions: cited from earlier work.
The test system of data set [3] is chemokine-induced migration. Briefly: chemokine-induced leukocyte migration in vitro (prior work). It counts as cell-based. The settings on record: compared with (S)-3-(undec-10-enoyl)-aminoglutarimide.
A further data set in a line: stability in human serum. It counts as in vitro ADME. The settings on record: 37° C.
The conditions of data set [4]: cited from earlier work.

Bridges are numbered along the chain shown (N, C = ends). Where no end group is shown, it is not given here. [ ]: non-standard residue; d: D form.

Consider `O=C1NCCCC[C@@H]1NC(=O)C12CC3CC(CC(C3)C1)C2` [(S)-3-(1′-adamantanecarbonylamino)caprolactam], for which the “anti-inflammatory activity in vivo (in words)” value in data set [1] is given as “powerful anti-inflammatory activity”. The “inhibition of leukocyte migration or recruitment in vitro (in words)” value in data set [2] was “potent inhibitor”.

For the compound `C=CCCCCCCCCC(=O)[C@@H]1CCCNC1=O` [(S)-3-(undec-10-enoyl)-tetrahydropyridin-2-one], the “potency compared with the parental molecule” value in data set [3] is “considerably reduced potency”. Further, the “time completely stable in human serum” value in “stability in human serum” is given as “at least 7 days”.

Consider “c(DCys-DGin-DIle-DTrp-DLys-DGln-DLys-DPro-DAsp-DLeu-DCys)-NH2 ([dC][dQ][dI][dW][dK][dQ][dK][dP][dD][dL][dC]-NH2; disulfide 1-11 (inferred)) [NR58-3.14.3]”, for which the “half-life period of clearance from blood plasma” value in data set [4] (after intravenous injection) is “less than 30 minutes”. For the same compound, the oral bioavailability result in data set [4] (in vivo, po) was “not orally bioavailable”.
